Laboratory results from patent US4353986A, “Process for producing antibiotic nanaomycin E” (priority 1978, dated 1982).
Values after ≈ are worked out from the molar mass of the structure shown.

Experiments:
[1] = acute toxicity (LD50) in mice; details: mouse, in vivo, iv; interaneveously administered to mice
Description: (§1) Thus, nanaomycin E is of interest as an antibacterial and therapeutic agent for humans and animals.

[2] = test system: Mycobacterium smegmatis ATCC 607; assay: antibacterial spectrum, MIC by agar dilution; format: cell-based; details: Mycolicibacterium smegmatis, ATCC607, nutrient agar pH 7.0, 37° C., 20 hours
[3] = test system: Trichophyton mentagrophytes; assay: antifungal spectrum, MIC by agar dilution; format: cell-based; details: potato-agar pH 6.4, 27° C., 70 hours
[4] = test system: Piricularia oryzae; assay: microbe, parasite or virus in culture; format: cell-based; details: pH 6.4; 27° C., 70 hours
[5] = test system: Microsporum gypseum; assay: antifungal spectrum, MIC by agar dilution; format: cell-based; details: Nannizzia gypsea, potato-agar pH 6.4, 27° C., 70 hours
[6] = test system: Proteus vulgaris IFO 3167; assay: antibacterial spectrum, MIC by agar dilution; format: cell-based; details: IFO3167, nutrient agar pH 7.0, 37° C., 20 hours
[7] = test system: Bacillus cereus T; assay: antibacterial spectrum, MIC by agar dilution; format: cell-based; details: nutrient agar pH 7.0, 37° C., 20 hours
[8] = test system: Staphylococcus aureus FS 1277 (penicillin-resistant); assay: antibacterial spectrum, MIC by agar dilution; format: cell-based; details: nutrient agar pH 7.0, 37° C., 20 hours
[9] = test system: Saccharomyces sake; assay: antifungal spectrum, MIC by agar dilution; format: cell-based; details: potato-agar pH 6.4, 27° C., 70 hours
[10] = test system: Candida albicans; assay: antifungal spectrum, MIC by agar dilution; format: cell-based; details: potato-agar pH 6.4, 27° C., 70 hours
[11] = test system: Pseudomonas aeruginosa P 3; assay: antibacterial spectrum, MIC by agar dilution; format: cell-based; details: P3, nutrient agar pH 7.0, 37° C., 20 hours
[12] = test system: Trichophyton schoenleini; assay: antifungal spectrum, MIC by agar dilution; format: cell-based; details: potato-agar pH 6.4, 27° C., 70 hours
[13] = test system: Escherichia coli NIHJ; assay: antibacterial spectrum, MIC by agar dilution; format: cell-based; details: nutrient agar pH 7.0, 37° C., 20 hours
[14] = test system: Nocardia asteroides; assay: antibacterial spectrum, MIC by agar dilution; format: cell-based; details: nutrient agar pH 7.0, 37° C., 20 hours
[15] = test system: Trichophyton rubrum; assay: antifungal spectrum, MIC by agar dilution; format: cell-based; details: potato-agar pH 6.4, 27° C., 70 hours
[16] = test system: Shigella sonnei E 33; assay: antibacterial spectrum, MIC by agar dilution; format: cell-based; details: E33, nutrient agar pH 7.0, 37° C., 20 hours
Protocol: (§2) The antibacterial and antifungal spectrum of nanaomycin E is shown in Table 1, in which the minimum inhibitory concentration (MIC) is determined by the agar dilution method. In the case of bacteria, the determination was made after culturing at 37° C. for 20 hours by using a nutrient agar having a pH of 7.0 and, in the cases of fungi, the determination was made after culturing at 27° C. for 70 hours by using a potato-agar having a pH of 6.4.

[17] = test system: Aspergillus niger ATCC 6275; assay: antifungal spectrum, MIC by agar dilution; format: cell-based; details: ATCC6275, potato-agar pH 6.4, 27° C., 70 hours
[18] = test system: Gram-positive bacteria and fungi; assay: activity against Gram-positive bacteria and fungi compared with nanaomycin A and D; format: cell-based
Protocol: as §2, §1

[19] = test system: Salmonella typhimurium; assay: antibacterial spectrum, MIC by agar dilution; format: cell-based; details: Salmonella enterica, nutrient agar pH 7.0, 37° C., 20 hours
[20] = test system: Trichophyton interdigitale; assay: antifungal spectrum, MIC by agar dilution; format: cell-based; details: potato-agar pH 6.4, 27° C., 70 hours
[21] = solubility; format: physicochemical
[22] = test system: Staphylococcus aureus FDA 209P; assay: antibacterial spectrum, MIC by agar dilution; format: cell-based; details: FDA209P, nutrient agar pH 7.0, 37° C., 20 hours
[23] = test system: Bacillus subtilis PCI 219; assay: antibacterial spectrum, MIC by agar dilution; format: cell-based; details: PCI219, nutrient agar pH 7.0, 37° C., 20 hours
[24] = test system: Sarcina lutea PCI 1001; assay: antibacterial spectrum, MIC by agar dilution; format: cell-based; details: Micrococcus luteus, PCI1001, nutrient agar pH 7.0, 37° C., 20 hours
[25] = test system: Staphylococcus aureus KB 64 (erythromycin- and tetracycline-resistant); assay: antibacterial spectrum, MIC by agar dilution; format: cell-based; details: nutrient agar pH 7.0, 37° C., 20 hours
[26] = test system: Gram-positive bacteria, Trichophyton and Mycoplasma; details: cited from earlier work

Compound: CC1OC(CC(=O)O)CC23OC12C(=O)c1c(O)cccc1C3=O (stereo not drawn) [nanaomycin E]
- LD50 [1]: 60 mg/kg
- MIC [2]: > 100 µg/mL
- MIC [3]: 50 µg/mL (≈ 157 µM)
- MIC [4]: 100 µg/mL (≈ 314 µM)
- MIC [5]: 100 µg/mL (≈ 314 µM)
- MIC [6]: 25 µg/mL (≈ 78.5 µM)
- MIC [7]: 12.5 µg/mL (≈ 39.3 µM)
- MIC [8]: 25 µg/mL (≈ 78.5 µM)
- MIC [9]: > 100 µg/mL
- MIC [10]: > 100 µg/mL
- MIC [11]: > 100 µg/mL
- MIC [12]: 50 µg/mL (≈ 157 µM)
- MIC [13]: 50 µg/mL (≈ 157 µM)
- MIC [14]: > 100 µg/mL
- MIC [15]: 50 µg/mL (≈ 157 µM)
- MIC [16]: > 100 µg/mL
- MIC [17]: > 100 µg/mL
- activity against Gram-positive bacteria and fungi relative to nanaomycin A and D [18]: approximately equal to or somewhat weaker than the activities of nanaomycin A and D
- MIC [19]: > 100 µg/mL
- MIC [20]: 50 µg/mL (≈ 157 µM)
- Solubility ([21]; in methanol, ethanol, ethyl acetate, butyl acetate etc.): Easily soluble
- Solubility ([21]; in n-hexane, petroleum ether etc.): Insoluble
- MIC [22]: 25 µg/mL (≈ 78.5 µM)
- MIC [23]: 12.5 µg/mL (≈ 39.3 µM)
- MIC [24]: 25 µg/mL (≈ 78.5 µM)
- MIC [25]: 25 µg/mL (≈ 78.5 µM)

Compound: CC1OC2CC(=O)OC2C2=C1C(=O)c1c(O)cccc1C2=O (stereo not drawn) [nanaomycin D]
- LD50 [1]: 1.5 mg/kg

Compound: CC1OC(CC(=O)O)CC2=C1C(=O)c1c(O)cccc1C2=O (stereo not drawn) [nanaomycin A]
- LD50 [1]: 46 mg/kg
- antibiotic activity ([26]; against Gram-positive bacteria, Trichophyton and Mycoplasma, known compound): having antibiotic activity against Gram-positive bacteria, Trichophyton and Mycoplasma
- activity against Gram-positive bacteria, Trichophyton and Mycoplasma ([26]; among nanaomycin-type compounds): exhibits the strongest activity
